Assay results as given in patent publication US20240016924A1, “NEW ADJUVANT TO IMPROVE THE INNATE IMMUNITY” (INSTITUT NATIONAL DE LA SANTÉ ET DE LA RECHERCHE MÉDICALE, priority 2020, published 2024).

What was measured:
Assay type in all cases: cell-based, human
[1] = system: RPMI 2650 cells; experiment: TSLP secretion in nasal RPMI 2650 cell culture supernatants (ELISA)
Procedure: Nasal RPMI 2650 cells (isolated from the human nasal septum, squamous cell carcinoma, ATCC) were grown in MEMα (Minimum Essential Medium α, Thermo Fisher) supplemented with 10% fetal calf serum (FCS, Eurobio, Courtaboeuf, France) and 1% penicillin/streptomycin.
TSLP, IL-25/IL-17E, IL-33, IFN-γ, IL-10, IL-12/23p40, IL-4, IL-5, IL-6, IL-13, TNF-α, MMP-9, IL-8/CXCL8, […], MDC/CCL22, TARC/CCL17, APRIL and BAFF were measured in culture supernatants from indicated experiments with custom multiplex Luminex assays (Bio-techne) according to the manufacturer's instructions. Additionally, when indicated TSLP was measured in culture supernatants by enzyme-linked immunosorbent assay (ELISA) with a limit of detection of 8 pg/ml (Thermo Fisher) according to the manufacturer's instructions.
We first investigate whether P1 induced TSLP secretion in nasal epithelium. Therefore, we cultured human nasal epithelial cells (RPMI 2650) with P1 Glade B for 2-24 hours at 37° C. and analyzed the culture supernatants for TSLP secretion.

[2] = system: Monocyte-derived DCs; experiment: DC-EC co-culture and DC activation
Procedure: Monocyte-derived DCs (DCs) were generated from primary human monocytes obtained from PBMCs (purity>98%) as described (Sallusto and Lanzavecchia 1994, Magérus-Chatinet, Yu et al. 2007). In brief, human peripheral blood mononuclear cells (PBMC) were separated from healthy donors blood (EFS, Paris, France), and monocytes were purified from PBMC by negative selection according to manufacturer instructions (StemCell Technologies, France). DCs were obtained by incubating monocytes for 7 days in complete medium containing GM-CSF (100 ng/ml) and IL-4 ([…]).
Three DC culture systems were developed. Monocytes derived DCs (5×10^5 cells) were incubate for 24 h in medium alone and considered as non-mucosal DCs (DCs) or co-cultured with nasal epithelial cell (RPMI-2650 cell line) monolayer in 24-well plate (DC-EC or eduDC systems for 24 hours at 37° C. In turn, DCs were either further cultured with ECs during P1 stimulation (DC-ECs) or separated from EC and transferred into a new plate (eduDCs) for further P1 treatment. Subsequently, P1 (clade B, 125 μM) or medium were added to each of the DCs, DC-ECs or eduDCs cultures for 16 hrs. DCs were collected for surface staining with allophycocyanin (APC)-conjugated anti-CD86, R-phycoerythrin (PE)-conjugated anti-CD83, APC-conjugated anti-TSLPR, PE-conjugated anti-IL-7Rα antibodies (all from Bio-Techne). Specific labeling was quantified by flow cytometry using a Guava EasyCyte flow cytometer and the InCyte software (Merck) described (Duchemin, Khamassi et al. 2018). Culture supernatant were collected and frozen at −80° C. for subsequent cytokine and chemokine analyses.
In particular, mucosal DCs modulate their functions by interacting with epithelial cells (ECs) including via epithelial secretion of TSLP (Rimoldi, Chieppa et al. 2005, Biton, Levin et al. 2011). Thus, we established a simplified mucosal DC model, by co-culturing DCs and nasal ECs (RPMI-2650 cell line), thereby mimicking the nasal mucosal environment. DCs were first ‘educated’ by a 24 hr co-culture with ECs. Subsequently, these ‘educated’ DCs were either maintained in culture with ECs and referred to as DC-EC, or separated from the epithelium and referred to as eduDC. Alternatively, DCs only cultured with medium represented ‘non-mucosal’ DCs.

[3] = system: CD8-depleted PBMCs cocultured with RPMI 2650 cells; experiment: In vitro immunization assay with ovalbumin
Procedure: In vitro immunization assay was performed as reported (Jung, Matsumoto et al. 2007) with modifications. Briefly, 1×10^6 CD8-depleted PBMCs (Human CD8 Depletion Cocktail, StemCell Technologies, France) were cocultured for 24 hrs with RPMI 2650 cells ([…]) pre-seeded in 48 well plates for 48 hrs. Then, ovalbumin (OVA, EndoFit Ovalbumin, 10 µg/mL, Invivogen) alone, OVA together with P1 (5 μM, 25 μM, 125 μM), OVA together with P1 mutant (P1mut, 125 μM), or medium were added to in RPMI 1640 medium supplemented with Non-Essential Amino Acids (NEAA solution, Thermo Fisher), IL-4 ([…]), IL-2 (10 UI/mL) and 2-mercaptoethanol (20 μM) for 7 days.
For the detection of OVA-specific B cells, at indicated time of culture, PMBCs were surface stained with ovalbumin conjugated to fluorescein (OVA-FITC, 20 ug/mL, Thermo), PE-conjugated mouse anti-human CD20 (BD Biosciences, CA, USA), APC-conjugated goat anti-human IgA or donkey anti-human IgG (Jackson ImmunoResearch, PA, USA) as indicated by the manufacturer. Specific labeling was quantified by flow cytometry with a Guava EasyCyte flow cytometer (Merck-Millipore), and analyzed with the dedicated InCyte software, using the following strategy: CD20+ B cells were first gated and cell double positive for OVA-FITC+ and APC-conjugated anti-IgA or anti-IgG were determined as OVA-IgA or IgG-specific B-cell s.
In vitro immunization assays have been used to produce specific monoclonal antibodies using a defined antigen complemented with an adjuvant (Borrebaeck, Danielsson et al. 1987). Here, we establish a mucosal immunization model adapted from (Jung, Matsumoto et al. 2007, Yeh, Yeh et al. 2013, Wijkhuisen, Savatier et al. 2016) and using mucosal DCs based on our results presented above. OVA was selected as the model antigen. Therefore, human CD8-depleted PBMCs (n=5 independent donors) were cocultured with RPMI 2650 cells for one day to educate DCs, and prior to addition of either medium, OVA, OVA plus P1 mutant (P1mut, 125 μM) or OVA plus P1 (5 μM, 25 μM, 125 μM) for seven more days. OVA-specific B cells were quantified by flow cytometry using FITC-conjugated OVA and anti-CD2O-PE to gate on OVA-specific B cells. The Ig isotype of surface B cell receptor (BCR) was next characterized by APC-conjugated anti-human-IgA or anti-human-IgG. […] Similar results were obtained when B cells were stained with anti-CD19-PE.

## SQNQQEKNEQELLELDKWASLWNWFNITNWLWYIK [P1]
[1]; 2-24 hours at 37° C.
  TSLP secretion time course: reaching a plateau from 4 to 24 h
[1]; P1 5, 25, 125 μM, 2 h to 4 h, compared with medium and scramble peptides
  TSLP secretion: upregulates TSLP secretion in a dose-dependent manner
[1]; P1 at 125 μM versus 5 μM and 25 μM
  TSLP secretion, trimeric versus monomeric state: significantly higher secretion of TSLP
[1]; peptide at 125 uM, 4 hours, n=5
  Secretion of TSLP: 52.3 ± 3.4 pg/mL
[2]; 'non-mucosal' DCs, P1 125 μM overnight
  expression of maturation markers CD83 and CD86: has no effect
[2]; DC models upon P1 stimulation
  IFN-γ secretion: remains unchanged upon P1-stimulation or slightly decreases in DC-EC
[2]; DCs in all three models
  expression of TSLP receptor (TSLP-R and IL-7Rα): significantly enhanced the expression of TSLP receptor
[2]; DCs, DC-EC, eduDC
  IL-12, IL-13, CCL2, CCL17, TNF-α, APRIL and BAFF secretion: secreted equally in all three models
[2]; eduDC and DC-EC models
  TSLP secretion: more modest
[2]; eduDC and DC-EC models compared with non-mucosal DCs
  IL-6, IL-8, IL-10, CCL20, CCL22 and MMP-9 secretion: significant increase
[2]; mucosal DCs (DC-EC or eduDCs), P1 125 μM overnight, versus untreated
  expression of co-stimulatory molecules CD83 and CD86: significant up-regulation
[2]; whatever the model
  IL-25, IL-33, IL-4, IL-5 secretion: remain undetectable
[3]; OVA plus P1 at 5 μM and 25 μM, 7 days
  induction of OVA-specific B cells: very limited
[3]; OVA plus P1 at 125 μM, 7 days, n=5 donors
  OVA-specific B cells (surface OVA-specific IgA and IgG): significantly enhances OVA recognition by B cells
[3]; absence of nasal epithelial cells during the in vitro immunization
  induction of OVA-specific B cells: not able to induce OVA-specific B cells
[3]; day 7, ELISA
  OVA-specific antibody secretion in culture supernatants: could not be detected by ELISA
